Measured values published in patent US7745651B2, “Cationic lipids and methods of use” (Protiva Biotherapeutics, Inc., priority 2004, dated 2010).
Several values for one entry are separate records, joined by “and”; a condition that tells them apart may be missing. Equal values may be shown once. Entries after “also recorded” stand apart in the source; their conditions may differ.

Columns and labels:
[1] = SNALP particle diameter and polydispersity, Malvern Zetasizer; format: physicochemical; conditions: SNALP DSPC:Chol:PEG-C-DMA:Cationic Lipid 20:48:2:30 molar percent; mean of 3 experiments, error is standard deviation
Procedure: SNALP Preparation: SNALP with a lipid composition of DSPC:Chol:PEG-C-DMA:Cationic Lipid (20:48:2:30 molar percent) were prepared using the spontaneous vesicle formation by ethanol dilution method [Jeffs et al., Pharm. Res. In Press (2005)]. The sample's were diafiltered against 100 mL of PBS (20 wash volumes) using a cross flow ultrafiltration cartridge (Amersham Biosciences, Piscataway, N.J.) and sterile filtered through Acrodisc 0.2 μm Posidyne filters (Pall Corp., Ann Arbor, Mich.). The siRNA concentration of final samples was determined using the RiboGreen assay and a siRNA standard curve. Particle size and polydispersity was determined using a Malvern Instruments Zetasizer 3000HSA (Malvern, UK). Nucleic acid encapsulation was determined using a RiboGreen assay, comparing fluorescence in the presence and absence of Triton X-100. RiboGreen fluorescence was measured using a Varian Eclipse Spectrofluorometer (Varian Inc) with λex=500 nm, λem=525 nm.
This example sets forth the physical properties of the SNALP formulations described herein. SNALP containing the various cationic lipids were prepared as described and encapsulated RNA and particle size assessed (Table 1 below). […] Polydispersity of all formulations was low, indicating a narrow distribution of particle size. RNA encapsulation in the final particles was 84-85% of the total.
Percentage Encapsulation was determined using the RiboGreen fluorescence assay to measure the amount of encapsulated nucleic acid relative to the total nucleic acid present. Particle diameter and polydispersity was measured using a Malvern Zetasizer. Values are the mean of 3 separate experiments, the error is standard deviation.

[2] = test system: luciferase expression in Neuro2A-G cells (Neuro2A cells stably transfected to express luciferase); assay: In vitro transfection: luciferase gene silencing by SNALP encapsulating anti-luciferase siRNA; format: cell-based; conditions: SNALP with anti-luciferase siRNA; for knockdown in gene expression (luciferase) versus control SNALP containing mismatch siRNA: Neuro2A cells stably expressing luciferase, 48 hours; for luciferase expression relative to untreated control: after 48 hours
Procedure: In vitro Transfection: Cells were cultured in MEM (Invitrogen) containing 10% fetal bovine serum (FBS) (CanSera) and 0.25 mg/mL G418 (Invitrogen). Neuro2A-G cells (Neuro2A cells stably transfected to express luciferase [R. E. Kingston. in Current Protocols in Molecular Biology, Vol. 2, pp. 9.1.4-9.1.9, John Wiley & Sons, Inc. (1997)]) were plated at a concentration of 4×10^4 cells per well in 24-well plates and grown overnight. Cells were treated with SNALP at doses of 0.0625-1.0 μg/mL nucleic acid (AntiLuc Active or Mismatch Control) and incubated for 48 hours at 37° C. and 5% CO2. Cells were then washed with PBS and lysed with 200 μL 250 mM sodium phosphate containing 0.1% Triton X-100. The luciferase activity for each well was determined using Luciferase Reagent (Promega) and a standard luciferase protein (Roche). The luminescence for each was measured using a Berthold MicroLumatPlus LB96V plate luminometer. The resulting luciferase activity was then normalized for the amount of protein using the Micro BCA assay kit (Pierce). Luciferase knockdown relative to a control was then determined for each system.
This example describes experiments comparing expression of nucleic acids following in vitro transfection of Neuro2A cells with SNALP comprising: (1) DODAC, DODMA, or DLinDMA; (2) PEG-C-DMA; and (3) an siRNA duplex directed against luciferase encapsulated in the SNALP (i.e., siRNA comprising the following sequence: […] (SEQ ID NO:1) and targeting the DNA sequence complementary to: […] (SEQ ID NO:3)). Neuro2A cells were stably transfected with a plasmid encoding luciferase under the control of the CMV promoter (pLO55). The stably transfected cells were then transfected with SNALP comprising: 15, 20, 25, 30, 35, or 40% of DODAC, DODMA, or DLinDMA; 2% PEG-C-DMA, and an siRNA duplex directed against luciferase encapsulated in the SNALP. Luciferase protein expression was measured 48 hours after transfection with SNALP.
The ability of SNALP containing each of the four cationic lipids (i.e., DSDMA, DODMA, DLinDMA, and DLenDMA) to effect gene silencing in stably transfected Neuro2A cells was evaluated. Neuro2A cells stably transfected to express the luciferase were treated with SNALP containing anti-luciferase siRNA for 48 hours. Gene-silencing efficiency was evaluated by comparing the remaining luciferase activity in these cells to that remaining in cells treated with control SNALP containing mismatch siRNA.

[3] = test system: Neuro2A-G cells; assay: Uptake of SNALP containing Cy3-labeled siRNA, fluorescence microscopy; format: cell-based; conditions: 0.5 μg/mL siRNA, 4 hours
Procedure: Uptake of SNALP Containing Cy3-labeled siRNA: SNALP were formulated as previously described, but using siRNA labelled with the fluorophore Cy3 (Cy3-siRNA was a gift of Sirna Therapeutics Inc, Boulder, Colo.). The encapsulation, siRNA concentration, and particle size were determined as described.
For the uptake study, 8×10^4 Neuro2A-G cells were grown overnight on 4-well chamber slides (BD Falcon, Mississauga, ON) in MEM containing 0.25 mg/mL G418. DSDMA, DODMA, DLinDMA, and DLenDMA SNALP containing Cy3-siRNA, as well as naked Cy3-siRNA and unlabeled DSDMA SNALP were placed on the cells at 0.5 μg/mL siRNA. After a 4 hour incubation with the transfection media, the cells were washed with PBS, then with MEM containing G418 and finally with PBS once more. […] The cells were viewed using an Olympus BX60 Microscope modified for fluorescence capabilities. Cy3 fluorescence within the cells was visualized using a rhodamine cube set (Microgen Optics, Redding, Calif.) and the DAPI fluorescence was visualized using a DAPI cube set (Carsen Group, Markham, ON). […] Pictures of the cells were taken at exposure times of ¼ sec when examining Cy3 fluorescence and 1/80 sec when examining DAPI fluorescence.
The uptake process was examined further with the use of fluorescently labelled SNALP. […] The Cy3 fluorescence (red) is most intense in cells treated with DSDMA containing SNALP. […]

Structure (SMILES): CC/C=C\C/C=C\C/C=C\CCCCCCCCOCC(CN(C)C)OCCCCCCCC/C=C\C/C=C\C/C=C\CC (stereo not shown) [DLenDMA, 1,2-Dilinolenyloxy-N,N-dimethylaminopropane]
- Diameter (nm) [1]: 132 ± 7 nm
- Polydispersity [1]: 0.13 ± 0.03
- knockdown in gene expression (luciferase) versus control SNALP containing mismatch siRNA [2]: slightly less efficient than those containing DLinDMA
- luciferase expression relative to untreated control [2]: 32%
- cellular uptake of Cy3-labeled siRNA (Cy3 fluorescence) [3]: extremely faint

Structure (SMILES): CCCCCCCCCCCCCCCCCC[N+](C)(C)CCCCCCCCCCCCCCCCCC [DSDMA, Distearyldimethylammonium]
- Diameter (nm) [1]: 180 nm and 182 ± 11 nm
- Polydispersity [1]: 0.15 ± 0.03
- knockdown in gene expression (luciferase) versus control SNALP containing mismatch siRNA [2]: no activity; also recorded: almost no capacity for effecting RNA interference
- luciferase expression relative to untreated control [2]: no effect on luciferase gene expression
- cellular uptake of Cy3-labeled siRNA (Cy3 fluorescence) [3]: most intense
